System: ID8Cosmc-KO
Assay: Survival of ID8Cosmc-KO-bearing mice, PAC-1 and 237 CAR-T combinations
Type: in vivo, mouse
Settings: single agent, PAC-1 100 mg/kg i.p. from day 40, three weeks 5 days ON, 2 days OFF; untreated 71 days; p<0.0001
Method: FIG. 14A-B. PAC-1 enhanced efficacy of 237 CAR-T in late-stage ovarian cancer model. Survival curves of mice with established ID8Cosmc-KO tumors treated with a combination of PAC-1 and 237 CAR-T in comparison with their single-agent controls. (A) Mice with detectable tumors at day 40 post-tumor inoculation were administered with either PAC-1 (100 mg/kg) or vehicle intraperitoneally for three weeks at a “five days ON, 2 days OFF” treatment schedule. At day 60 post-tumor inoculation, mice were given either 237 CAR-T or mock T cells (5 million cells, >40% transduction efficiency) via i.p. injection. Cyclophosphamide (100 mg/kg, i.p.) were administered 24 hours prior to adoptive T cell transfer to deplete pre-existing lymphocytes. (B) Data were plotted with GraphPad Prism v10 using cumulative data across five independent experiments, with the indicated total n for each treatment arm. Median survival times are indicated; P-values were calculated using the Log-rank (Mantel-Cox) test.
FIG. 15A-B. PAC-1 at day 50 (or day 60) and 237 CAR-T at day 60 combination treatment. […] Median survival times are indicated; P-values were calculated using the Log-rank (Mantel-Cox) test. […]
FIG. 16A-B. 237 CAR-T at day 60 and PAC-1 at day 77 combination treatment. […] Median survival times are indicated; P-values were calculated using the Log-rank (Mantel-Cox) test. […]

For C=CCc1cccc(/C=N/NC(=O)CN2CCN(Cc3ccccc3)CC2)c1O [PAC-1], the median survival was 90 days.
